Test [1] has as its system RPE cells. Briefly: Screen of chemical and metabolic stresses for site-specific copy gain (FISH). Type of test: cell-based, human. The conditions noted are these: 24 h treatment: 60 μM H2O2, 2 μg/ml Tunicamycin, 2 mM DTT, 5 mM NAC, 1 μM DMNQ. How it is done: Cells were treated with the following chemical and metabolic stresses for 24 hours at doses used in the literature: 2 μg/ml Tunicamycin (TU, Abcam), 60 μM H2O2(Thermo Fisher Scientific), reduced-serum DMEM (0.1% FBS), Glucose-free DMEM (No Gluc, GIBCO), 2 mM DTT (Sigma), 5 mM N-acetyl Cysteine (NAC, Sigma), and 1 μM 2,3-Dimethoxy-1,4-naphthoquinone (DMNQ, Sigma). For heat shock (HS) treatment, cells were incubated at 43° C. for 30 minutes and returned to 37° C. for 24 hours prior to collection.
FISH was performed as described in (Manning et al. 2010; Black et al. 2013). For RPE cells, copy gain was scored as any cell with 3 or more distinct foci. Approximately 100 cells for each replicate were scored for all experiments. All FISH experiments include at least 2 biological replicates. For each experiment at least one replicate includes FACS and western blot from the same cells used for FISH. For knockdown experiments, at least two different siRNA were used for each target. Results are presented as the average from both of the independent siRNAs.
FISH was performed as described in (Manning et al. 2010; Black et al. 2013). Probes for 1q12h, 1q telomere, chromosome 8 centromere (alpha satellite), and X centromere (alpha satellite) were purchased from Rainbow Scientific. Probes for Zebrafish BCL9 (CH73-15J19) and Zebrafish IGBP1 (CH73-223D24) were purchased as BAC clones from Children's Hospital Oakland Research Institute (CHORI BacPac) clone repository. Probes for 1q21.2 (BCL9) and 1q23.3 were purchased from Agilent (SureFISH). BACS were prepared utilizing PureLink HiPure™ Plasmid Filter Maxiprep kit (Life Technologies) using the recommended modified wash buffer. Probes were nick translated (Abbot Molecular Kit) in the presence of fluorescently labeled dTTP (Enzo Life Science). Images of multiple planes of fields of nuclei were acquired on an Olympus IX81™ Spinning Disk Microscope and analyzed using Slidebook 5.0™ software. We used a conservative scoring metric for copy gain. Any foci that were touching were scored as a single copy to prevent increased numbers due to normally replicated foci. For RPE cells, copy gain was scored as any cell with 3 or more distinct foci. For 293T cells, copy gain was scored for any cell with 5 or more distinct foci. For UMRC2 cells, copy gain was scored for any cell with 6 or more foci. For SK-N-AS cells, copy gain was scored for any cell with 5 or more foci. For MDA-MB-468 cells, copy gain was scored for any cell with 5 or more foci. For MDA-MB-231 cells, copy gain was scored for any cell with 7 or more foci. Approximately 100 cells for each replicate were scored for all experiments. All FISH experiments include at least 2 biological replicates. For each experiment, at least one replicate includes FACS and western blot from the same cells used for FISH. For knockdown experiments, at least two different siRNA were used for each target. Results are presented as the average from both of the independent siRNAs.

Test [2] deals with RPE cells. Briefly: FISH for hypoxia-dependent site-specific copy gain. Type of test: cell-based, human. How it is done: Cells were plated onto culture dishes and allowed to adhere for 20-24 hours in normoxia (5% CO2, 21% O2, and 74% N2). For hypoxic treatment, cells were maintained in a HERA™ Cell 150 incubator (Thermo Scientific) flushed with 5% CO2, 1% O2, and balanced with N2 for the duration of the experiment. Incubator calibrations and verifications were carried out by Bianchi Associates Calibrations/Verifications.
For G1/S synchronization, cells were treated with 2 mM hydroxyurea (HU, Sigma) for 20 hours. To release, cells were washed twice with culture medium pre-conditioned in normoxia or hypoxia, and supplied with fresh pre-conditioned media. For JIB-04 treatment, normoxic cells were pre-treated with 62.5 nM JIB-04 (Xcessbio) for 24 hours, and then treated again with JIB-04 and either transferred to 1% O2 or maintained in normoxia for an additional 24 hours. […]
FISH was performed as described in (Manning et al. 2010; Black et al. 2013). For RPE cells, copy gain was scored as any cell with 3 or more distinct foci. Approximately 100 cells for each replicate were scored for all experiments. […]
FISH was performed as described in (Manning et al. 2010; Black et al. 2013). […] Images of multiple planes of fields of nuclei were acquired on an Olympus IX81™ Spinning Disk Microscope and analyzed using Slidebook 5.0™ software. […] Any foci that were touching were scored as a single copy to prevent increased numbers due to normally replicated foci. For RPE cells, copy gain was scored as any cell with 3 or more distinct foci. For 293T cells, copy gain was scored for any cell with 5 or more distinct foci. For UMRC2 cells, copy gain was scored for any cell with 6 or more foci. For SK-N-AS cells, copy gain was scored for any cell with 5 or more foci. For MDA-MB-468 cells, copy gain was scored for any cell with 5 or more foci. For MDA-MB-231 cells, copy gain was scored for any cell with 7 or more foci. Approximately 100 cells for each replicate were scored for all experiments. […]

Another test concerns KDM4A. Briefly: Western blot of KDM4A protein levels in hypoxia. Type of test: cell-based, human. To be noted: RPE cells, 1% O2; for KDM4A stabilization / protein levels in hypoxia: 2 mM succinate. How it is done: Western blots were performed as in (Black et al. 2010).
Western Blots. Western blots were performed as in (Black et al. 2010). Briefly, adherent cells were either scraped directly into PBS, or washed with PBS, trypsinized and collected by centrifuging at 2,000 RPM for 5 minutes. For preparation of whole-cell lysates, cell pellets were washed once in ice-cold PBS and resuspended in RIPA lysis buffer [50 mM Tris pH 7.4, 150 mM NaCl, 0.25% Sodium Deoxycholate, 1% NP40, 1 mM EDTA, 10% Glycerol] supplemented with cOmplete protease inhibitor and PhosSTOP phosphatase inhibitor cocktails (Roche). Cells were lysed on ice for 15 minutes and immediately frozen at −80° C. for 10 minutes. Lysates were subsequently sonicated at 70% amplitude for 15 minutes in a QSonica Q700 sonicator and cleared of cell debris by centrifuging at 12,000 RPM for 15 minutes, before being analyzed by western blotting. For HIF1α and HIF2a expression, adherent cells were washed twice with ice-cold PBS and scraped directly in warmed 1× Laemmli buffer. Samples were sonicated at 70% amplitude for 15 minutes in a QSonica Q700™ and boiled at 95° C. for 10 minutes immediately prior to western blotting.
Background: In western blotting, separated proteins are transferred to a membrane and probed.

The subject of test [3] is RPE cells. Kind of test: Cell cycle analysis by flow cytometry. Type of test: cell-based, human. To be noted: for cell cycle progression in hypoxia: 2 mM succinate. How it is done: Asynchronously growing, or G1/S arrested cells were prepared and fixed as in (Black et al. 2010). Cells were stained with 10 μM EdU for 1 hour prior to collection. Cell cycle was analyzed by PI staining or EdU incorporation using Click-IT EdU™ Flow Cytometry Assay Kit (Life Technologies). Flow cytometry of CD4+ T cells and cell cycle distribution were analyzed using a BD FACS ARIA II™.
A general note: In flow cytometry, cells or beads pass a laser one at a time.

In another test the test system is JmjC-containing proteins. The conditions noted are these: Smith et al. 2007; Black et al. 2012; cited from earlier work.
The next test relates to KDM4 family. To be noted: Wang et al. 2013; cited from earlier work.
For a further test, the target named is KDM5A (Homo sapiens, UniProt P29375). The conditions noted are these: Wang et al. 2013; cited from earlier work.
Chain of KDM5A (P29375 whole entry, species assumed): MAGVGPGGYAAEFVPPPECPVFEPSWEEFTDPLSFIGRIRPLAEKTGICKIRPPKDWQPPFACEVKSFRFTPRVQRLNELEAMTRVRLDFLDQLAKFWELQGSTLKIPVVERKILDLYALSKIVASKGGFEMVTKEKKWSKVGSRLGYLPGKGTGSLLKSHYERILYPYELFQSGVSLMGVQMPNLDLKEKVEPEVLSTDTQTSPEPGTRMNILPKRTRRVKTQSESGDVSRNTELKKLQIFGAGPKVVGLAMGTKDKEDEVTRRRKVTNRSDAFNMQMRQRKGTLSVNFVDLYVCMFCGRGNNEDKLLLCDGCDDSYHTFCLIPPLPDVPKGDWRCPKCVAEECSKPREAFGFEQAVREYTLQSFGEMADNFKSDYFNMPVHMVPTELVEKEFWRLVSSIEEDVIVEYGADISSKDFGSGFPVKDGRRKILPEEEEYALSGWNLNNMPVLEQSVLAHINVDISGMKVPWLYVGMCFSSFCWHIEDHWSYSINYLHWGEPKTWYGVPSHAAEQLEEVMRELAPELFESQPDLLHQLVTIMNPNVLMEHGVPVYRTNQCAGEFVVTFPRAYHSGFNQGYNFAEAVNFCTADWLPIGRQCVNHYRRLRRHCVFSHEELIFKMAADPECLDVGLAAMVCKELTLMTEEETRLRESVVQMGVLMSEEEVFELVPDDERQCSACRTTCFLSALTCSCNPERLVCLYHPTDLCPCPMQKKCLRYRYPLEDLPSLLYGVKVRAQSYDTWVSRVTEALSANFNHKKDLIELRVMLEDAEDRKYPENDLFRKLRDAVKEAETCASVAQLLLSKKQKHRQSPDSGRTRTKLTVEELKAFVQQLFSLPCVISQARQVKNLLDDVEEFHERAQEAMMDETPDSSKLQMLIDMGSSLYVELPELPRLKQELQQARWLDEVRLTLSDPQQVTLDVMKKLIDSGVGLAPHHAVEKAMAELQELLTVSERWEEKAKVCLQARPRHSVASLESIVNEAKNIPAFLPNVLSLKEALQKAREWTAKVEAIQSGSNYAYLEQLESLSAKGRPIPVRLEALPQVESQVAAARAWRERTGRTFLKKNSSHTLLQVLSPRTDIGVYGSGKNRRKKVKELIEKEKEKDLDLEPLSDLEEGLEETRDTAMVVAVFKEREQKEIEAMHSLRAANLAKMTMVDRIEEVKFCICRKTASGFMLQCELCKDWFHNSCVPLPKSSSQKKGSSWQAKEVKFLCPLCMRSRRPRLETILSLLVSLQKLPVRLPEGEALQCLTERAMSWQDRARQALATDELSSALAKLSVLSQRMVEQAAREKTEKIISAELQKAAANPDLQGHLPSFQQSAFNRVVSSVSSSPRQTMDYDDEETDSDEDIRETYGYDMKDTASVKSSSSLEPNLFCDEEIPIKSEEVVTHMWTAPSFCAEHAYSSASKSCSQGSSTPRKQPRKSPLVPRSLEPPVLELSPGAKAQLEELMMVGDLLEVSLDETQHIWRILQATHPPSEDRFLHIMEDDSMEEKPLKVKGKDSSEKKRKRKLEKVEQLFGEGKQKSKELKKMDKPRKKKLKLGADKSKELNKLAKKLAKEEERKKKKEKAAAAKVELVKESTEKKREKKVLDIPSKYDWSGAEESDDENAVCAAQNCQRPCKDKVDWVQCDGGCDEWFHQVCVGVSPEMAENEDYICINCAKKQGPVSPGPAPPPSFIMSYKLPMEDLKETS
Another test concerns the target KDM6B (Homo sapiens, UniProt O15054). The conditions noted are these: Wang et al. 2013; cited from earlier work.

Entries after “also recorded” stand apart in the source; their conditions may differ.

Chain of KDM6B (O15054 whole entry, species assumed): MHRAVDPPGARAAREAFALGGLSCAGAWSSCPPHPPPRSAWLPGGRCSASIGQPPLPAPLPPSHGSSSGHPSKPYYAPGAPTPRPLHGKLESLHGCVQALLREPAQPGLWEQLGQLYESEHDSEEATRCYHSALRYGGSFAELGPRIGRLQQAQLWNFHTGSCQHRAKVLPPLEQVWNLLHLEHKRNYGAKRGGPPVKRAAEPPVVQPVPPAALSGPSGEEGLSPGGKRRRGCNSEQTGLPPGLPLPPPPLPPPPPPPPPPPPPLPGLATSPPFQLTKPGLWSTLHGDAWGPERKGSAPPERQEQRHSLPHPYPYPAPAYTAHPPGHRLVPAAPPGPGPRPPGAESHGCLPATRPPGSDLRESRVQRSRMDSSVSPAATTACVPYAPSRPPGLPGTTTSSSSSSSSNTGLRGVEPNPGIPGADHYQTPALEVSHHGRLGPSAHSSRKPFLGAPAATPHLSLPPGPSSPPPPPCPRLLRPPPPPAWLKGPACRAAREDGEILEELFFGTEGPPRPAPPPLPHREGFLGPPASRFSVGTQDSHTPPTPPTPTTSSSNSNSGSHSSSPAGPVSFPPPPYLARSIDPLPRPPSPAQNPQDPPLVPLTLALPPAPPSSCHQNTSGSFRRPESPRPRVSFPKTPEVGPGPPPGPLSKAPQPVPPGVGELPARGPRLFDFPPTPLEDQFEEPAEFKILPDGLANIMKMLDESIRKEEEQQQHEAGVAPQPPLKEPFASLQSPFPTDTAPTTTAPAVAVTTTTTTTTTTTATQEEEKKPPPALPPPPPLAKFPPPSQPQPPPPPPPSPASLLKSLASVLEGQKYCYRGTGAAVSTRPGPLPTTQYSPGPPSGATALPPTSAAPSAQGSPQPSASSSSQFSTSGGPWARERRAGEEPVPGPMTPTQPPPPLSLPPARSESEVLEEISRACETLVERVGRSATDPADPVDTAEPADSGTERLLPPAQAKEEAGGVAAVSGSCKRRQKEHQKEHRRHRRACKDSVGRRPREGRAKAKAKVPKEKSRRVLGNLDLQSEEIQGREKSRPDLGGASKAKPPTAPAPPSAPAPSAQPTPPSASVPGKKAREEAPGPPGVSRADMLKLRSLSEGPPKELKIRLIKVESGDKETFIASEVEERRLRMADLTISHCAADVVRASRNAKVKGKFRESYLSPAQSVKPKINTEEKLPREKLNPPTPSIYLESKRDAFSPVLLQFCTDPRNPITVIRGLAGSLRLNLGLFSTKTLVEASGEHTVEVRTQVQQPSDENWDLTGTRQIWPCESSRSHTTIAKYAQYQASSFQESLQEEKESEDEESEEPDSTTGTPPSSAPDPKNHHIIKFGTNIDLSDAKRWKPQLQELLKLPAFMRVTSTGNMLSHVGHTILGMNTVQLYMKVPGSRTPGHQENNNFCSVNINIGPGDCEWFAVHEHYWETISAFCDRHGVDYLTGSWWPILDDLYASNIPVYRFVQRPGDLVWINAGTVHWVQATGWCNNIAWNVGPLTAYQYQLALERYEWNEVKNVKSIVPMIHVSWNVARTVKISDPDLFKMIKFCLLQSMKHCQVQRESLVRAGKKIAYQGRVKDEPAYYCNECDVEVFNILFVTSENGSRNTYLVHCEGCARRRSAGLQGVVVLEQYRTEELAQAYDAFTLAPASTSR

For the molecule `O[C@@H](CS)[C@@H](O)CS` [DTT], the “site-specific copy gain (FISH for 1q12h, Chr 8, 1q23.3, 1q21.2)” value (“site-specific copy gain” below) in the test with RPE cells [1] was “did not induce site-specific copy gain; also recorded: do not induce site-specific copy gains”.
Consider Tunicamycin, for which the “site-specific copy gain” value in the test on RPE cells [1] is on record as “does not promote copy gain”.
For `O=C(O)CCC(=O)O` [succinate], the “hypoxia-dependent copy gain of 1q12h (FISH)” value is reported as “can be suppressed” in the test on RPE cells [2] (2 mM succinate, 48 h normoxia then 1% O2 24 h) and “sufficient to abrogate” with RPE cells [2] (2 mM succinate, 48 h normoxia then 1% O2 24 h, listed as Succinate). For the same molecule, the “KDM4A stabilization / protein levels in hypoxia” value is “does not alter KDM4A protein levels” with KDM4A and “did not alter” in the test on KDM4A (listed as Succinate). In addition, the “cell cycle progression in hypoxia” value with RPE cells [3] (1% O2) was “no difference in cell cycle phases”; with RPE cells [3] (1% O2, listed as Succinate) it was “did not alter”. In the test with JmjC-containing proteins, the “inhibition of JmjC-containing proteins” value is recorded as “can be inhibited”.
On to `OO` [H2O2], for which the “site-specific copy gain” value in the test with RPE cells [1] was “does not promote copy gain”.
Take `CC(=O)N[C@@H](CS)C(=O)O` [N-Acetyl Cysteine, N-acetyl Cysteine]: the “site-specific copy gain” value in the test on RPE cells [1] is “did not induce site-specific copy gain”; in the test with RPE cells [1] (listed as N-acetyl Cysteine), “do not induce site-specific copy gains”.
Regarding `COC1=C(OC)C(=O)c2ccccc2C1=O` [DMNQ, 2,3-Dimethoxy-1,4-naphthoquinone], the “site-specific copy gain” value with RPE cells [1] was “did not induce site-specific copy gain; also recorded: do not induce site-specific copy gains”.
In the case of `Clc1ccc(N/N=C(\c2ccccc2)c2ccccn2)nc1` [JIB-04], the “hypoxia-dependent copy gain of 1q12h (FISH)” value in the test on RPE cells [2] (62.5 nM JIB-04 pre-treated 24 h, treated again, 1% O2 24 h) is “significantly reduced; also recorded: blocks hypoxia-dependent copy gain”. For the same molecule, the “KDM4A protein levels in hypoxia” value with KDM4A (JIB-04 62.5 nM) was “did not substantially alter; also recorded: does not alter KDM4A protein levels”. Moreover, in the test on RPE cells [3] (JIB-04 62.5 nM, 1% O2), the “cell cycle profiles in hypoxia” value is recorded as “did not substantially alter; also recorded: no difference in cell cycle phases”. Also, the “inhibition of the KDM4 family” value with KDM4 family is given as “inhibits”. The “inhibition of KDM5A” value on KDM5A is recorded as “inhibits”. Besides, the “inhibition of KDM6B” value on KDM6B was “inhibits”.

Values taken from patent US20180127748A1, “METHODS RELATING TO THE PREVENTION AND TREATMENT OF DRUG RESISTANCE” (THE GENERAL HOSPITAL CORPORATION, priority 2015, published 2018).
